From patent US10703721B2, “Caffeic acid derivatives and uses thereof” (Board of Regents, The University of Texas System, priority 2017, dated 2020)

Tests used:
Assay in all cases: Cytotoxicity assay (MTS, 72 hours)
[1] = tested on: MDA-PATC-53; assay type: cell-based
Experimental: (§1) Tumor cell lines were maintained in DMEM with 10% fetal bovine serum (FBS), 100 microg/ml streptomycin, and 100 IU/ml penicillin in 5% CO2 at 37° C.
(§2) For the cytotoxicity assays, 1,500 tumor cells were plated into 96-well flat-bottom tissue culture plates in complete medium (see Tables 2 and 3). After 20 hours fresh media containing different concentrations of compounds disclosed herein added. Cell number was counted after 72 hours by using MTS assay (Promega CellTiter AQ Non-Radioactive Cell Proliferation Assay kit, Madison, Wis., USA) by measuring absorbance at 490 nm with a 96-well plate reader. Data are presented as IC50 values derived from relative inhibition of proliferation plus SD of eight measurements. The number of cells in the presence of DMSO was taken as 100%.

[2] = tested on: Colo357-FG; assay type: cell-based, human
Experimental: as §1
Colo357-FG and Colo357-L3: Colo357-FG, a fast-growing variant produced regional lymph node metastasis in 58% of nude mice after subcutaneous implantation and growth. It also produced hepatic metastasis in 64% and pulmonary metastasis in 43% of nude mice after intrasplenic implantation of tumor cells. See Vezeridis et al. (1990).
as §2

[3] = tested on: HD2; assay type: cell-based; conditions: Table 3, Myeloma
Experimental: as §2, with “After” for “For the cytotoxicity assays, 1,500 tumor cells were plated into 96-well flat-bottom tissue culture plates in complete medium (see Tables 2 and 3). After”

[4] = tested on: Ovcar-5; assay type: cell-based
Experimental: as §1, §2

[5] = tested on: BT483; assay type: cell-based
Experimental: as §1, §2

[6] = tested on: 4T1; assay type: cell-based
Experimental: as §1, §2

[7] = tested on: HH; assay type: cell-based; conditions: Table 3, CTCL
Experimental: as §1, §2

[8] = tested on: HuT78; assay type: cell-based
Experimental: as §1, §2

[9] = tested on: U87MG; assay type: cell-based; conditions: Table 3, GBM
Experimental: as §1, §2

[10] = tested on: A375; assay type: cell-based
Experimental: as §1, §2

[11] = tested on: LN319; assay type: cell-based; conditions: LN-319, Table 3, GBM
Experimental: as §1, §2

[12] = tested on: MDA-PATC-108; assay type: cell-based; conditions: Table 3, Panc
Experimental: as §1, §2

[13] = tested on: MDA-PATC-148; assay type: cell-based; conditions: Table 3, Panc
Experimental: as §1, §2

[14] = tested on: MDA-PATC-153; assay type: cell-based; conditions: Table 3, Panc
Experimental: as §1, §2

[15] = tested on: D423; assay type: cell-based; conditions: Table 3, GBM
Experimental: as §1, §2

[16] = tested on: SK-MEL-28; assay type: cell-based
Experimental: as §1, §2

[17] = tested on: PC3; assay type: cell-based
Experimental: as §1, §2

[18] = tested on: 231; assay type: cell-based; conditions: Table 3, Breast
Experimental: as §1, §2

[19] = tested on: SU.86.86; assay type: cell-based
Experimental: as §1, §2

[20] = tested on: D423 enol; assay type: cell-based; conditions: Table 3, GBM
Experimental: as §1, §2

[21] = tested on: LNZ-428; assay type: cell-based; conditions: Table 3, GBM
Experimental: as §1, §2

[22] = tested on: 231-MB; assay type: cell-based; conditions: Table 3, Breast
Experimental: as §1, §2

[23] = tested on: MIA-PaCa-2; assay type: cell-based
Experimental: as §1, §2

[24] = tested on: BT-58; assay type: cell-based; conditions: Table 3, Ependymoma
Experimental: as §1, §2

[25] = tested on: WM35; assay type: cell-based
Experimental: as §1, §2

[26] = tested on: WM793; assay type: cell-based, human
Experimental: as §1
WM793 human melanoma tumor cell lines were used from different stages of progression and their biological and molecular analyses. See Satyamoorthy et al. (1997).
as §2

[27] = MDA-PATC53, 72 h, Table 2, MDA-PATC-53
[28] = Homo sapiens, COLO 357/FG, 72 h, Table 2, Colo357-FG

CCN(CC)CCOc1ccc(C(CC)(CC)NC(=O)/C(C#N)=C/c2ccccn2)cc1 [WP 1727, (E)-2-cyano-N-(3-(4-(2-(diethylamino)ethoxy)phenyl)pentan-3-yl)-3-(pyridin-2-yl)acrylamide]
IC50 [1, 27]: 3000 nM
IC50 [2, 28]: 2200 nM

CCC(CC)(NC(=O)/C(C#N)=C/c1cccc(Cl)n1)c1ccc(OCCOCCN2CCN(C)CC2)cc1 [WP 1731, (E)-3-(6-chloropyridin-2-yl)-2-cyano-N-(3-(4-(2-(2-(4-methylpiperazin-1-yl)ethoxy)ethoxy)phenyl)pentan-3-yl)acrylamide]
IC50 [1, 27]: 1800 nM
IC50 [2, 28]: 1500 nM

CCC(CC)(NC(=O)/C(C#N)=C/c1cccc(Cl)n1)c1ccc(OCCOCCN2CCN(C)CC2)cc1 [WP1732]
IC50 [3]: 3800 nM
IC50 ([4]; Homo sapiens, OVCAR-5, Table 3, Ovarian): 1700 nM
IC50 ([5]; Homo sapiens, BT-483, Table 3, Breast): 2300 nM
IC50 ([6]; Mus musculus, 4T1, Table 3, Breast): 4500 nM
IC50 ([7]; Homo sapiens, HH): 3200 nM
IC50 ([8]; Homo sapiens, HuT78, Table 3, CTCL): 2900 nM
IC50 ([9]; Homo sapiens, U-87 MG): 1800 nM
IC50 ([10]; Homo sapiens, A-375, Table 3, Melanoma): 1100 nM
IC50 [11]: 2800 nM
IC50 [12]: 1600 nM
IC50 [13]: 1900 nM
IC50 [14]: 2600 nM
IC50 [15]: 1400 nM
IC50 ([16]; Homo sapiens, SK-MEL-28, Table 3, Melanoma): 1800 nM
IC50 ([17]; Homo sapiens, PC-3, Table 3, Prostate): 1400 nM
IC50 [18]: 2800 nM
IC50 ([19]; Homo sapiens, SU.86.86, Table 3, Panc): 1500 nM
IC50 [20]: 2500 nM
IC50 [21]: 2300 nM
IC50 ([1]; MDA-PATC53, 72 h, Table 3, Panc): 1800 nM
IC50 [22]: 1500 nM
IC50 ([23]; Homo sapiens, MIA PaCa-2, Table 3, Panc): 1600 nM
IC50 [24]: 1800 nM
IC50 ([25]; WM35, Table 3, Melanoma): 2300 nM
IC50 ([2]; Homo sapiens, COLO 357/FG, 72 h, Table 3, Panc): 2600 nM
IC50 ([26]; Homo sapiens, WM793, Table 3, Melanoma): 1800 nM

CCN(CC)CCOc1ccc(C(CC)(CC)NC(=O)/C(C#N)=C/c2cccc(Cl)n2)cc1 [WP 1722, (E)-3-(6-chloropyridin-2-yl)-2-cyano-N-(3-(4-(2-(diethylamino)ethoxy)phenyl)pentan-3-yl)acrylamide]
IC50 ([1]; Table 2, MDA-PATC-53): 1100 nM
IC50 ([2]; Table 2, Colo357-FG): 1200 nM

CCN(CC)CCOc1ccc(C(CC)(CC)NC(=O)/C(C#N)=C/c2cccc(Cl)n2)cc1 [WP 1794]
IC50 [1, 27]: 900 nM
IC50 [2, 28]: 600 nM

CCC(CC)(NC(=O)/C(C#N)=C/c1cccc(Cl)n1)c1ccc(OCCN2CCOCC2)cc1 [WP 1793]
IC50 ([1]; Table 2, MDA-PATC-53): 1000 nM
IC50 ([2]; Table 2, Colo357-FG): 800 nM

CCC(CC)(NC(=O)/C(C#N)=C/c1cccc(Cl)n1)c1ccc(OCCOCCN2CCOCC2)cc1 [WP 1723, (E)-3-(6-chloropyridin-2-yl)-2-cyano-N-(3-(4-(2-(2-morpholinoethoxy)ethoxy)phenyl)pentan-3-yl)acrylamide]
IC50 [1, 27]: 1400 nM
IC50 [2, 28]: 1200 nM

CCC(CC)(NC(=O)/C(C#N)=C/c1ccccn1)c1ccc(OCCOCCN2CCOCC2)cc1 [WP 1724, (E)-2-cyano-N-(3-(4-(2-(2-morpholinoethoxy)ethoxy)phenyl)pentan-3-yl)-3-(pyridin-2-yl)acrylamide]
IC50 [1, 27]: 3500 nM
IC50 [2, 28]: 2800 nM

C[C@H](NC(=O)/C(C#N)=C/c1cccc(Br)n1)c1ccccc1 [WP1066, reference compound]
IC50 [3]: 1700 nM
IC50 ([4]; Table 3, Ovarian): 1700 nM
IC50 ([5]; Table 3, Breast): 4200 nM
IC50 ([6]; Table 3, Breast): 4400 nM
IC50 [7]: 2300 nM
IC50 ([8]; Table 3, CTCL): 1900 nM
IC50 [9]: 1700 nM
IC50 ([10]; Table 3, Melanoma): 1500 nM
IC50 [12]: 2400 nM
IC50 ([16]; Table 3, Melanoma): 2000 nM
IC50 ([17]; Table 3, Prostate): 2300 nM
IC50 [18]: 4800 nM
IC50 ([19]; Table 3, Panc): 2500 nM
IC50 [21]: 1500 nM
IC50 ([1]; Table 2, MDA-PATC-53): 2400 nM
IC50 ([1]; Table 3, Panc): 2400 nM
IC50 [22]: 1200 nM
IC50 ([23]; Table 3, Panc): 1700 nM
IC50 [24]: 1800 nM
IC50 ([25]; Table 3, Melanoma): 1300 nM
IC50 ([2]; Table 2, Colo357-FG): 2100 nM
IC50 ([2]; Table 3, Panc): 2000 nM
IC50 ([26]; Table 3, Melanoma): 2100 nM

CCC(CC)(NC(=O)/C(C#N)=C/c1cccc(Cl)n1)c1ccc(OCCN2CCOCC2)cc1 [WP 1721, (E)-3-(6-chloropyridin-2-yl)-2-cyano-N-(3-(4-(2-morpholinoethoxy)phenyl)pentan-3-yl)acrylamide]
IC50 [1, 27]: 1100 nM
IC50 [2, 28]: 1100 nM

CCCC(CCC)(NC(=O)/C(C#N)=C/c1cccc(Cl)n1)c1ccc(OCCN2CCOCC2)cc1 [WP 1733, (E)-3-(6-chloropyridin-2-yl)-2-cyano-N-(4-(4-(2-morpholinoethoxy)phenyl)heptan-4-yl)acrylamide]
IC50 [1, 27]: 1100 nM
IC50 [2, 28]: 950 nM

CCCC(CCC)(NC(=O)/C(C#N)=C/c1cccc(Cl)n1)c1ccc(OCCN(CC)CC)cc1 [WP 1734, (E)-3-(6-chloropyridin-2-yl)-2-cyano-N-(4-(4-(2-(diethylamino)ethoxy)phenyl)heptan-4-yl)acrylamide]
IC50 [1, 27]: 1600 nM
IC50 [2, 28]: 1500 nM
